pEC50: −log10 of the molar value.
What was measured:
[1] = Stable Transfection Assay: The assay utilized the stably transfected cell line Huh-7 luc/neo (hereafter referred to as Huh-Luc). This cell line harbors an RNA encoding a bicistronic expression construct comprising the wild type NS3-NS5B regions of HCV type 1b translated from an Internal Ribosome Entry Site (IRES) from encephalomyocarditis virus (EMCV), preceded by a reporter portion (FfL-luciferase), and a selectable marker portion (neoR, neomycine phosphotransferase). The construct is flanked by 5' and 3' NTRs (non-translated regions) from HCV type 1b. Continued culture of the replicon cells in the presence of G418 (neoR) is dependent on the replication of the HCV RNA. The stably transfected replicon cells that replicate HCV RNA autonomously and to high levels, encoding inter alia luciferase, were used for screening the antiviral compounds.
[2] = Transient Transfection Assay: In a transient set-up, a Huh-7 lunet hepatoma cell line was transiently transfected with an autonomously replicating RNA encoding a bi-cistronic expression construct. This construct comprises a firefly luciferase reporter gene preceding the NS3-NS5B subgenomic region of HCV (genotype 1a H77 or 1b Con1). Translation of the HCV subgenomic region is mediated by an internal ribosome entry site of encephalomyocarditis virus. The construct is furthermore flanked by 5' and 3' untranslated regions of HCV (genotype 1a H77 or 1b Con 1, respectively), which allow for replication of the RNA. In addition to the wild-type constructs, site-directed mutations were introduced into the transient HCV genotype 1b replicon in the gene encoding for the non-structural protein 5A (NS5A). More precisely, amino acid residues 28, 30, 31 and 93 in NS5A were independently altered. Cells were plated in 384 well plates in the presence of test and control compounds, which were added in various concentrations. Following an incubation of two days, replication of the HCV subgenomic replicon RNA was measured by assaying luciferase activity (using standard luciferase assay substrates and reagents and a Perkin Elmer ViewLux™ ultraHTS microplate imager).; format: cell-based

Row | Structure (SMILES) | pEC50 [1] | pEC50 [2]
1 | COC(=O)N[C@H](C(=O)N1CCC[C@H]1c1nc2ccc(-c3ccc4cc(-c5cnc([C@@H]6CCCN6C(=O)[C@@H](NC(=O)OC)[C@@H](C)OC)[nH]5)ccc4c3)cc2[nH]1)C(C)C | 11.22 | –
2 | COC(=O)N[C@H](C(=O)N1CCC[C@H]1c1ncc(-c2ccc3cc(-c4ccc5nc([C@@H]6CCCN6C(=O)[C@@H](NC(=O)OC)[C@@H](C)OC)[nH]c5c4)ccc3c2)[nH]1)C(C)C | – | 11.15
